Where two headings read alike, the source gives them in different places.
How the values were obtained:
[1] = test system: RS4;11 leukemia xenograft; assay: Antitumor activity in RS4;11 leukemia xenograft model; format: in vivo; conditions: nude mice, oral gavage, treatment started day 11, FIG. 3
Procedure: (§1) The antitumor activity of Cpd. No. 6 (compound 6) was also studied in the RS4;11 leukemia xenograft model. Human RS4;11 tumor cells were injected into nude mice and treatment started on day 11 when the tumor size reached approximately 100 mm^3. Cpd. No. 6 was administered via oral gavage at indicated doses and schedules. Cpd.

[2] = Mouse weight in RS4;11 leukemia xenograft model; format: in vivo; conditions: nude mice, oral gavage, FIG. 4
Procedure: as §1

Pharmacokinetics in rats = conditions: rat, in vivo
Procedure: The pharmacokinetics of ABT-199 and representative Compounds of the Disclosure were evaluated in rats at an IV dose of 2 mg/kg and an oral dose of 20 mg/kg.

[3] = IV 2 mg/kg, read-out: AUC0-∞ (ng · h/mL) IV
[4] = oral 20 mg/kg, read-out: AUC0-∞ (ng · h/mL) PO

AUC(0-inf) (Pharmacokinetics in rats; [3]) [ng·h/mL] | AUC(0-inf) (Pharmacokinetics in rats; [4]) [ng·h/mL] | Structure (SMILES) | Antitumor activity (tumor growth) [1] | Mouse weight [2]
2680 | 7780 | O=C(NS(=O)(=O)c1ccc(NCC2CCOCC2)c([N+](=O)[O-])c1)c1ccc(N2CCN(CC3=C(c4ccc(Cl)cc4)CC4(CCC4)CC3)CC2)cc1Oc1cnc2[nH]ccc2c1 [Cpd. No. 3, 2-((1H-pyrrolo[2,3-b]pyridin-5-yl)oxy)-4-(4-((6-(4-chlorophenyl)spiro[3.5]non-6-en-7-yl)methyl)piperazin-1-yl)-N-((3-nitro-4-(((tetrahydro-2H-pyran-4-yl)methyl)amino)phenyl)sulfonyl)benzamide] |  | 
5450 | 20800 | CC1(C)CCC(CN2CCN(c3ccc(C(=O)NS(=O)(=O)c4ccc(NCC5CCOCC5)c([N+](=O)[O-])c4)c(Oc4cnc5[nH]ccc5c4)c3)CC2)=C(c2ccc(Cl)cc2)C1 [ABT-199, Venetoclax, reference compound] |  | 

Structure (SMILES) | AUC(0-inf) (Pharmacokinetics in rats; [3]) [ng·h/mL] | AUC(0-inf) (Pharmacokinetics in rats; [4]) [ng·h/mL] | Antitumor activity (tumor growth) [1] | Mouse weight [2]
O=C(NS(=O)(=O)c1ccc(NC[C@H]2COCCO2)c([N+](=O)[O-])c1)c1ccc(N2CCN(CC3=C(c4ccc(Cl)cc4)CC4(CCC4)CC3)CC2)cc1Oc1cnc2[nH]ccc2c1 [Cpd. No. 6, (S)-N-((4-(((1,4-dioxan-2-yl)methyl)amino)-3-nitrophenyl)sulfonyl)-2-((1H-pyrrolo[2,3-b]pyridin-5-yl)oxy)-4-(4-((6-(4-chlorophenyl)spiro[3.5]non-6-en-7-yl)methyl)piperazin-1-yl)benzamide] | 2920 | 13500 | inhibits tumor growth | does not cause weight loss

Reference: patent US10829488B2, “N-(phenylsulfonyl)benzamides and related compounds as bcl-2 inhibitors” (THE REGENTS OF THE UNIVERSITY OF MICHIGAN, priority 2016, dated 2020)
